Source: ChEMBL document CHEMBL1926590, “Discovery of a novel class of non-ATP site DFG-out state p38 inhibitors utilizing computationally assisted virtual fragment-based drug design (vFBDD)” (Bioorg Med Chem Lett, 2011)

Assays:
[1] = Oral bioavailability in Sprague-Dawley rat at 4 mg/kg; type: ADME, organism-based; details: in vivo
[2] = Half life in human hepatocytes; type: ADME, cell-based, Liver, Hepatocyte
[3] = Apparent permeability across apical to basolateral side in human Caco2 cells by UPLC analysis; type: ADME, cell-based; details: Caco-2
[4] = Apparent permeability across basolateral to apical side in human Caco2 cells by UPLC analysis; type: ADME, cell-based; details: Caco-2

CN(C)CCN1CCN(C(=O)c2cc(C(C)(C)C)sc2NC(=O)Nc2cccc(Cl)c2Cl)CCC1=O
bioavailability [1]: 33% | half-life [2]: 5.67 h | Papp A→B [3]: 0.39 ×10⁻⁶ cm/s | Papp B→A [4]: 5.3 ×10⁻⁶ cm/s
